Results on 1 compound are retold here after US12115176B2, “Methods and compositions relating to ClbP inhibition” (PRESIDENT AND FELLOWS OF HARVARD COLLEGE, priority 2021, dated 2024).

The subject of assay [1] is Enterococcus faecalis. Nature of the assay: Bacterial MIC assay (broth dilution). It is filed as cell-based. Conditions: 15 h, read-out: MICs by compound. In general terms: In broth dilution the organism is exposed to a series of concentrations in liquid medium.
For assay [2], the system named is HeLa cells infected with NC101. Nature of the assay: HeLa infection assay with pks+ E. coli, cell cycle analysis by flow cytometry. It is filed as cell-based, human. How it is done: Infection with pks^+ E. coli. Assays for cell-cycle arrest and FANCD2 ubiquitination were performed by seeding 24-well plates with 125,000 HeLa cells per well and incubating those plates under standard conditions for 24 hours. At the same time, cultures of NC101 and NC101ΔclbP were started from frozen stocks in LB broth and grown at 37° C. with shaking overnight. […] Cultures were monitored until an OD600 of 0.3-0.5 was reached. At that point, samples of the cultures were removed and DMSO stock solutions of the inhibitor of interest were added to each sample to a final concentration of 1% DMSO and the concentration of inhibitor indicated.
Media in the 24-well plate was aspirated, HeLa cells were washed with sterile DPBS (Thermo Fisher Scientific), and fresh DMEM+FBS+1% DMSO with the indicated concentration of inhibitor was added. A volume of E. coli equivalent to 2.5×10^7 bacteria based on OD in DMEM+FBS+1% DMSO with the indicated concentration of inhibitor was then added directly to wells (Multiplicity of Infection, MOI 1:100). Infections were carried out for 4 hours at 37° C. in a humidified 5% CO2 incubator. Media was then aspirated and cells were washed with DPBS twice to remove bacteria, and fresh DMEM+FBS+PSF supplemented with 50 μg/mL gentamicin was added.
Cell Cycle Analysis. Between 20 and 24 hours after infection, HeLa cells were trypsinized (0.25% Trypsin-EDTA, Gibco), washed with DPBS, and fixed in cold 70% ethanol and stored at 4° C. until flow cytometry analysis (24-48 hours). Cells were centrifuged at 800×g for 10 minutes and 70% ethanol was aspirated. Cells were resuspended in DPBS for 15 minutes, then centrifuged and supernatant aspirated again. Cells were then resuspended in DPBS with 0.2 mg/mL RNAse A (Invitrogen) and 0.02 mg/mL propidium iodide (Millipore Sigma). After 30 minutes, cells were analyzed on a BD LSR II Analyzer at the Harvard University Bauer Core Flow Cytometry Facility. For each replicate, 10,000 events were collected and results were gated for single cells and plotted using the FloJo™ software package.

The test system of assay [3] is E. coli NC101 with mouse fecal community. Description: ClbP inhibition in a microbial community. It is filed as cell-based. The note with it: E. coli NC101 plus C57BL/6J mouse fecal community, anaerobic, 1 μM 3, LC-MS. How it is done:
ClbP inhibition in a microbial community. Mouse pellets were aseptically collected from cages and immediately stored at −80° C. until use. One 5 mL starter culture each of E. coli NC101 and E. coli NC101ΔclbP was started from frozen stocks in deoxygenated Brain-Heart Infusion media (BHI) inside an anaerobic chamber under a 95% N215% H2 atmosphere and incubated at 37° C. overnight. Mouse fecal pellets were defrosted in the anaerobic chamber and resuspended in BHI with 10 mL media/100 mg pellet mass. The fecal slurry was then centrifuged at 1000×g for 5 minutes to separate solids and the resulting supernatant was used as the media for all “+ community” conditions. Cultures were incubated in 500 μL volumes in triplicate in a deep-well plate under anaerobic conditions, with a 1:100 inoculum of the appropriate E. coli overnight for the “+E. coli” conditions. All samples contained a final concentration of 1% DMSO, with or without 1 μM inhibitor 3. After 20 hours at 37° C., samples were processed, and the concentration of N-myristoyl-D-asparagine quantified via LC-MS/MS as described above.

The test system of assay [4] is E. coli BW25113 BACpks. Nature of the assay: Metabolomics (LC-MS, XCMS). It is filed as cell-based. The note with it: BW pks (and NC101), 1 μM 3 versus DMSO. How it is done:
Metabolomics. One 5 mL starter culture each of E. coli BW25113 BACpks and E. coli BW25113 BACpksΔclbP was inoculated from frozen stocks and grown overnight at 37° C. in LB medium supplemented with 35 μg/ml chloramphenicol (LB+cam). Overnights were diluted 1:1000 in fresh LB+cam+1% DMSO with or without 1 μM inhibitor 3 in 5 replicates for each condition and grown for 20 hours at 37° C. A 500 μL aliquot was taken from each replicate, flash frozen in liquid nitrogen and lyophilized to dryness. Lyophilized pellets were extracted with 500 μL LC-MS grade methanol and prepared in the same manner as described above for metabolomics. Samples were analyzed by LC-MS on an Agilent Technologies 1200 series LC with a Phenomenex Luna C18 column (5 μm, 100 Å, 250×4.6 mm) coupled to an Agilent 6530 Quadrupole-Time of Flight mass spectrometer. The following chromatography conditions were used: 99% Solvent A in Solvent B for 1.5 minutes, linear gradient to 0% Solvent A in Solvent B over 43.5 minutes, 0% Solvent A for 8 minutes, linear gradient back to 99% Solvent A over 1 minute, equilibration in 99% solvent A for 9 minutes at flow rate of 0.4 mL/min and a 10 uL injection volume. Solvent A is water with 0.1% formic acid, solvent B is acetonitrile with 0.1% formic acid. […]

Molecules are shown by their SMILES. Entries after “also recorded” stand apart in the source; their conditions may differ. Where only a bound is given, the exact number is not on record here.

As to `CC1(C)OB([C@@H](CC(N)=O)NC(=O)CCCc2ccccc2)OC1(C)C` [Compound 3], in assay [1], the MIC is over 200 µM. Besides, the “concentration that completely blocks G2/M phase cell cycle arrest” value is at most 100 nM in assay [2] (HeLa and NC101, inhibitor in the infection medium, FIG. 12A); at most 5 nM in assay [2] (HeLa and pks+ E. coli, 1-hour preincubation of inhibitor with E. coli, FIG. 4). Moreover, the “cell cycle arrest phenotype of colibactin genotoxicity” value in assay [2] (HeLa cells infected with NC101, propidium iodide flow cytometry) is recorded as “can block the cell cycle arrest phenotype; also recorded: prevents cell cycle arrest”. Besides, in assay [2] (Homo sapiens, HeLa cells infected with pks+ E. coli, FIG. 4, read-out: apparent IC50 for inhibition of G2/M-phase arrest), the IC50 was about 10 nM. Besides, the “production of prodrug scaffold in a complex microbial community” value in assay [3] is reported as “reduce the release of N-myristoyl-Asn; also recorded: fully suppressed production of the prodrug scaffold; also recorded: can selectively block colibactin biosynthesis; also recorded: can still effectively block colibactin production”. In addition, in assay [4], the “changes in metabolites versus clbP deletion” value was “resulted in the same changes in metabolites as genetic deletion of clbP”.
